Results reported in US20240226049A1, “METHODS OF TREATMENT USING BEMPEDOIC ACID” (Esperion Therapeutics, Inc., priority 2023, published 2024).
Where “and” joins values, the source holds several entries; their conditions need not be identical. Identical values can stand only once.

Tested on: primary prevention patients unable to tolerate recommended doses of statins
Assay: CLEAR OUTCOMES primary prevention subgroup (Example 2): time-to-event efficacy end points
Format: in vivo, human
Procedure: The rationale, design and methods of the CLEAR Outcomes trial is described in Example 1. The trial was conducted at 1250 sites in 32 countries and designed by the Cleveland Clinic Coordinating Center for Clinical Research (C5Research) and an academic Executive Committee in collaboration with the sponsor. The protocol was approved by ethics committees at participating sites and all patients provided written informed consent before enrollment. A contract research organization collected the data which were transferred to C5Research at completion of the trial whose statisticians conducted the analyses described herein. An independent Data Monitoring Committee monitored the trial.
Primary prevention patients 18 to 85 years of age with an LDL cholesterol ≥100 mg/dL with clinical features placing them at high risk for a first cardiovascular event were eligible. Criteria for high cardiovascular risk included risk scores, such as the Reynolds Risk Score and the SCORE project (Ridker et al., Development and validation of improved algorithms for the assessment of global cardiovascular risk in women: the Reynolds Risk Score, JAMA. 2007 Feb. 14; 297(6):611-9; Ridker et al., C-reactive protein and parental history improve global cardiovascular risk prediction. The Reynolds Risk Score for men, Circulation. 2008; 118: 2243-2251; European Guidelines on CVD Prevention in Clinical Practice. 2016. Eur J Prev Cardiol. 2016 July; 23(11):NP1-NP96), a coronary artery calcium score >400 Agatston units (AU) or presence of either type 1 or 2 diabetes in women aged >65 years or men older than 60 years.
Investigators were responsible for assessing the patient for statin intolerance. Patients had to report statin intolerance due to an adverse effect that started or increased during statin therapy and resolved or improved after statin therapy was discontinued. Entry criteria required inability to tolerate 2 or more statins at any dose or 1 statin and unwillingness to attempt a second statin or advised by a physician not to attempt taking a second statin. Both the patient and site investigator were required to provide written confirmation that the patient was statin intolerant and aware of the benefits of statins to reduce the risk of cardiovascular events, including death, and acknowledge that many patients who are unable to tolerate a statin can tolerate a different statin or dose. Patients could be enrolled if they tolerated a very low average daily statin dose defined as rosuvastatin <5 mg, atorvastatin <10 mg, simvastatin <10 mg, lovastatin <20 mg, pravastatin <40 mg, fluvastatin <40 mg, or pitavastatin <2 mg. Other background lipid-lowering therapies were permitted, including ezetimibe, niacin, bile acid resins, fibrates, and/or proprotein convertase subtilisin kexin type 9 (PCSK9) inhibitors.
Eligible patients entered a 4-week run-in period during which patients were treated with single-blind placebo. If patients were intolerant to placebo treatment or if adherence was <80% by tablet count, they were not eligible for randomization. Patients who successfully completed the run-in period were randomly assigned in a 1:1 ratio to receive a 180 mg oral dose of bempedoic acid or matching placebo, administered daily. During the trial, LDL cholesterol and hsCRP results were masked. Beginning 6 months after randomization, the central laboratory notified the investigator, who remained blinded to treatment assignment, if the patient's LDL cholesterol level was ≥25% higher than baseline. Repeat testing was performed after the patient was counseled about diet and encouraged to take all medications as prescribed. The patient returned for a repeat fasting blood lipid profile to confirm whether the LDL cholesterol value exceeded the threshold criteria. If confirmed, the patient's treatment regimen for LDL cholesterol lowering could be adjusted, per standard of care and local practice. […]

[1] = primary prevention patients, 180 mg oral daily, N = 2100
[2] = vs placebo, primary prevention, adjusted for baseline characteristics
[3] = vs placebo, primary prevention, adjusted for baseline characteristics, listed as bempedoic acid
[4] = vs placebo, primary prevention, unadjusted

With CC(C)(CCCCCC(O)CCCCCC(C)(C)C(=O)O)C(=O)O [Bempedoic Acid, Bempedoic acid] the “3-component MACE, % of patients” value [1] was 4.0%, the “3-component MACE, number of patients” value [1] was 83 number of patients and the “5-component MACE, % of patients” value [1] was 5.3%. The “5-component MACE, number of patients” value [1] was 112 number of patients, the “All-cause mortality, % of patients” value [1] was 3.6% and the “All-cause mortality, number of patients” value [1] was 75 number of patients. The “Cardiovascular death, % of patients” value [1] was 1.8%, the “Cardiovascular death, number of patients” value [1] was 37 number of patients and the “Coronary revascularization, % of patients” value [1] was 2.4%. For the same compound, the “Coronary revascularization, number of patients” value [1] was 50 number of patients, the “Fatal and non-fatal MI, % of patients” value [1] was 1.4% and the “Fatal and non-fatal MI, number of patients” value [1] was 29 number of patients. For the same compound, the “Fatal and non-fatal stroke, % of patients” value [1] was 1.3%, the “Fatal and non-fatal stroke, number of patients” value [1] was 27 number of patients and the “Hospitalization for unstable angina, % of patients” value [1] was 0.5%. For the same compound, the “Hospitalization for unstable angina, number of patients” value [1] was 10 number of patients, the “Primary efficacy endpoint (MACE-4), % of patients” value [1] was 5.3% and the “Primary efficacy endpoint (MACE-4), number of patients” value [1] was 111 number of patients. For the same compound, the “number need to treat (NNT) to prevent one primary composite outcome” value (primary prevention patients, 4-component MACE) was 43 patients, the “effect on stroke and coronary revascularization” value (primary prevention patients, vs placebo) was “not significantly reduced” and the “3-component MACE, Hazard Ratio (95% CI), adjusted” value [2] was 0.64 (0.48-0.84). For the same compound, the “5-component MACE, Hazard Ratio (95% CI), adjusted” value [2] was 0.69 (0.54-0.88), the “All-cause mortality, Hazard Ratio (95% CI), adjusted” value [2] was 0.73 (0.54-0.98) and the “Cardiovascular death, Hazard Ratio (95% CI), adjusted” value [2] was 0.61 (0.41-0.92). For the same compound, the “Coronary revascularization, Hazard Ratio (95% CI), adjusted” value [2] was 0.71 and 0.71 (0.49-1.03), the “Fatal and non-fatal MI, Hazard Ratio (95% CI), adjusted” value [2] was 0.61 (0.39-0.98) and the “Fatal and non-fatal stroke, Hazard Ratio (95% CI), adjusted” value [2] was 0.76 (0.46-1.26). The “Hospitalization for unstable angina, Hazard Ratio (95% CI), adjusted” value [2] was 0.58 (0.26-1.27), the “Primary efficacy endpoint (MACE-4), Hazard Ratio (95% CI), adjusted” value [2] was 0.70 (0.55-0.89) and the “3-component MACE, Hazard Ratio (95% CI), adjusted” value [3] was 0.64. The “5-component MACE, Hazard Ratio (95% CI), adjusted” value [3] was 0.69, the “All-cause mortality, Hazard Ratio (95% CI), adjusted” value [3] was 0.73 and the “Cardiovascular death, Hazard Ratio (95% CI), adjusted” value [3] was 0.61. The “Fatal and non-fatal MI, Hazard Ratio (95% CI), adjusted” value [3] was 0.61, the “Fatal and non-fatal stroke, Hazard Ratio (95% CI), adjusted” value [3] was 0.76 and the “Hospitalization for unstable angina, Hazard Ratio (95% CI), adjusted” value [3] was 0.58. For the same compound, the “Primary efficacy endpoint (MACE-4), Hazard Ratio (95% CI), adjusted” value [3] was 0.70, the “3-component MACE, Hazard Ratio (95% CI), unadjusted” value [4] was 0.61 (0.46-0.80) and the “5-component MACE, Hazard Ratio (95% CI), unadjusted” value [4] was 0.67 (0.53-0.86). For the same compound, the “All-cause mortality, Hazard Ratio (95% CI), unadjusted” value [4] was 0.69 (0.51-0.92), the “Coronary revascularization, Hazard Ratio (95% CI), unadjusted” value [4] was 0.73 (0.50-1.05) and the “Death from cardiovascular causes, Hazard Ratio (95% CI), unadjusted” value [4] was 0.57 (0.38-0.85). The “Fatal and non-fatal MI, Hazard Ratio (95% CI), unadjusted” value [4] was 0.61 (0.38-0.97), the “Fatal and non-fatal stroke, Hazard Ratio (95% CI), unadjusted” value [4] was 0.72 (0.44-1.19) and the “Hospitalization for unstable angina, Hazard Ratio (95% CI), unadjusted” value [4] was 0.58 (0.27-1.27). For the same compound, the “Primary efficacy endpoint (MACE-4), Hazard Ratio (95% CI), unadjusted” value [4] was 0.68 (0.53-0.87).
